From patent US20210260225A1, “PROTECTION OF BIOLOGICALLY ACTIVE MOLECULES DURING RADIATION STERILIZATION” (Qiagen Sciences LLC, priority 2018, published 2021)

Columns and labels:
[1] = system: white blood cells present in human whole blood samples; experiment: Concanavalin A activity after E-beam irradiation (IFN-γ release in whole blood, ELISA); assay type: cell-based; conditions: for Protection of ConA stimulatory activity against E-beam (FIG. 12): 10 mM Cys or 3.0 mM G-SH, E-beam irradiated; for Protective effect on ConA activity, titration of radioprotectant (FIG. 13): 25 kGy E-beam, radioprotectant 1.0 to 10 mM
[2] = system: white blood cells present in human whole blood samples; experiment: QFM (anti-CD3 + R848) stimulatory activity after E-beam irradiation (IFN-γ release in whole blood, ELISA); assay type: cell-based; conditions: for Protection of stimulatory activities of anti-CD3 and R848 against E-beam (FIG. 8): 10 mM Cys or 3.0 mM G-SH, E-beam irradiated; for Protective effect on combined anti-CD3 and R848 activity, titration of radioprotectant (FIG. 9): 25 kGy E-beam, radioprotectant 1.0 to 10 mM
Protocol: (§1) Following incubation with the QFM samples in the QFN tubes, whole blood sample processing, plasma harvesting and IFN-γ ELISA were performed according to the QuantiFERON®-TB Gold Plus package insert (QFN-TB Gold Plus, QIAGEN, Inc., Germantown, Md.) except that the plasma samples were diluted 1:10 in ELISA kit Green Diluent immediately before testing on 8-point standard curves.

[3] = system: white blood cells present in human whole blood samples; experiment: Pokeweed mitogen activity after E-beam irradiation (IFN-γ release in whole blood, ELISA); assay type: cell-based; conditions: for Protection of PWM stimulatory activity against E-beam (FIG. 10): 10 mM Cys or 3.0 mM G-SH, E-beam irradiated; for Protective effect on PWM activity, titration of radioprotectant (FIG. 11): 25 kGy E-beam, radioprotectant 1.0 to 10 mM
Protocol: Pokeweed Mitogen (PWM) samples were dissolved in DPBS at a concentration of 33.3 μg/mL and treated with various doses of E-beam irradiation in the presence or absence of 10 mM cysteine (Cys) or 3 mM glutathione (G-SH). The treated PWM samples were tested for their biological activity (ability to elicit IFNγ release during an in vitro incubation) on white blood cells present in human whole blood samples, collected from a group of six randomly selected donors, using 1.0 μg of PWM per mL of whole blood in QFN Nil tubes. Following incubation with the PWM samples in the QFN tubes, whole blood sample processing, plasma harvesting and IFN-γ ELISA were performed according to the QuantiFERON®-TB Gold Plus package insert (QFN-TB Gold Plus, QIAGEN, Inc., Germantown, Md.) except that the plasma samples were diluted 1:10 in ELISA kit Green Diluent immediately before testing on 8-point standard curves.

[4] = system: T-cells present in a whole human blood sample; experiment: Anti-CD3 antibody T-cell stimulatory activity after E-beam irradiation (IFN-γ secretion in whole blood, ELISA); assay type: cell-based; conditions: for Protection of anti-CD3 antibody stimulatory activity against E-beam (FIG. 4): 10 mM Cys or 3.0 mM G-SH in DPBS, E-beam doses up to 25 kGy; for Protective effect on anti-CD3 activity, titration of radioprotectant (FIG. 5): 25 kGy E-beam, radioprotectant 1.0 to 10 mM
Protocol: Anti-CD3 antibody samples were dissolved in Dulbecco's phosphate-buffered saline (DPBS) and diluted to a concentration of 66.7 μg/mL, then exposed to various doses of E-beam irradiation in the presence or absence of 10 mM cysteine (Cys) or 3 mM glutathione (G-SH). The treated antibody samples were tested for their T-cell stimulatory activity by determining their ability to induce interferon-gamma (IFNγ) secretion by T-cells present in a whole human blood sample obtained from a group of six randomly selected donors, using 0.10 μg of anti-CD3 antibody per mL of whole blood in QuantiFERON® (QFN) Nil tubes (QIAGEN, Inc., Germantown, Md.). Following the incubation of the whole blood samples with the anti-CD3 antibody in the QFN Nil tubes, blood processing, plasma harvesting and IFN-γ detection by enzyme-linked immunosorbent assay (ELISA) were performed according to the manufacturer's instructions as found in the QuantiFERON®-TB Gold Plus package insert (QFN-TB Gold Plus, QIAGEN, Inc., Germantown, Md.) except that the plasma samples were diluted 1 to 10 in ELISA kit Green Diluent immediately before testing on 8-point standard curves.

[5] = system: white blood cells present in human whole blood samples; experiment: R848 TLR agonist (NK cell stimulatory) activity after E-beam irradiation (IFN-γ release in whole blood, ELISA); assay type: cell-based; conditions: for Protection of R848 stimulatory activity against E-beam (FIG. 6): 10 mM Cys or 3.0 mM G-SH, E-beam treated; for Protective effect on R848 activity, titration of radioprotectant (FIG. 7): 25 kGy E-beam, radioprotectant 1.0 to 10 mM
Protocol: as §1, with “R848 (resiquimod, CAS 144875-48-9) is a toll-like receptor (TLR) agonist which can stimulate biological responses by natural killer (NK) cells, and its activity can be measured in the […] tubes (QIAGEN, Inc., Germantown, Md.) QFN whole blood culture system. […] Following” for “Following”, “R848” for “QFM”

whole blood samples [6] = experiment: Mitogenic activity of PHA-P formulation with radioprotectant additives, with or without E-Beam (IFN-γ secretion, QuantiFERON ELISA); assay type: cell-based, human; conditions: for Group Mean Percentage of Mitogenic Activity: additive 5.0 mM, vs untreated control without additives; for Group Mean Percentage of Mitogenic Activity / Concentration-dependent protection of PHA-P mitogenic activity (FIG. 1) / PHA-P Formulation Potency with Additives: 6 donors; for Concentration-dependent protection of PHA-P mitogenic activity (FIG. 1): E-beam 25 kGy in solution, cysteine 1.0-50 mM, melatonin 0.2-10 mM; for PHA mitogenic activity, % of PHA control formulation (FIG. 1): E-Beam 25 kGy, control without additive and without sterilization; for PHA-P Formulation Potency with Additives: no irradiation, vs same formulation without additives (100%)
Protocol: Cysteine (closed circles) and melatonin (open circles) were dissolved in the same PHA-P formulation to various final concentrations. The mitogenic activities were determined by measuring IFN-γ secretion in whole blood samples from six blood donors using QuantiFERON® ELISA according to the manufacturer's instructions (QIAGEN, Inc., Germantown, Md.). Group mean percentages of mitogenic activity over controls (PHA-P alone without any additives) are presented.
L-cysteine was dissolved in a PHA-P formulation to 1.0-50 mM. Due to its lower water solubility, melatonin stock solution at 200 mM was first prepared in 100% ethyl alcohol. The stocks were then added into the PHA-P formulation to make final concentrations from 0.2-10 mM. After the E-Beam treatment, potencies of PHA-P formulations were tested with whole blood samples and mitogenic activity was determined using QuantiFERON® ELISA (QIAGEN, Inc., Germantown, Md.) according to the manufacturer's instructions.

whole blood samples [7] = experiment: as above; assay type: cell-based, human; conditions: E-Beam 0.0 kGy; additive 5.0 mM; vs untreated control without additives; 6 donors
whole blood samples [8] = experiment: Storage stability of mitogenic activity of radiation sterilized spray-dried PHA tubes with or without cysteine; assay type: cell-based, human; conditions: 5.0 mM cysteine; E-Beam sterilized; subsequent time points extending beyond eight months post-production
Protocol: QuantiFERON® Mitogen Control blood collection tubes were produced with and without cysteine (5.0 mM final concentration in liquid mitogen formulation) and sterilized with E-Beam radiation. Mitogen tubes' biological (mitogenic) activities were tested over time and are presented as % potency differences of the activity of mitogen tubes formulated with cysteine compared to mitogen tubes formulated without cysteine. Each dot in the figure represents the % activity of group mean at each time point.
Mitogen (spray-dried PHA) tubes were produced and radiation sterilized as described in Example 1, comparing PHA preparations without added cysteine to PHA preparations containing 5.0 mM cysteine. The long-term storage stability of the radioprotective effect of cysteine on the mitogenic activity of spray-dried PHA was also assessed.
Following spray-drying and radiation sterilization the tubes were held for various time periods before being tested for mitogenic activity as described previously.

whole blood samples [9] = experiment: Mitogenic potency of spray-dried PHA in QuantiFERON Mitogen Control blood collection tubes after radiation sterilization (IFN-γ by QuantiFERON ELISA); assay type: cell-based, human; conditions: for PHA mitogenic response, % of control (FIG. 2): control: no radioprotectant, no sterilization, 8 donors
[10] = spray-dried tubes after radiation sterilization, cysteine 5 mM where present

Row | Compound | Protection of ConA stimulatory activity against E-beam (FIG. 12) [1] | Protective effect on ConA activity, titration of radioprotectant (FIG. 13) [1] | Protection of stimulatory activities of anti-CD3 and R848 against E-beam (FIG. 8) [2] | Protective effect on combined anti-CD3 and R848 activity, titration of radioprotectant (FIG. 9) [2] | Protection of PWM stimulatory activity against E-beam (FIG. 10) [3] | Protective effect on PWM activity, titration of radioprotectant (FIG. 11) [3] | Protection of anti-CD3 antibody stimulatory activity against E-beam (FIG. 4) [4] | Protective effect on anti-CD3 activity, titration of radioprotectant (FIG. 5) [4] | Protection of R848 stimulatory activity against E-beam (FIG. 6) [5] | Protective effect on R848 activity, titration of radioprotectant (FIG. 7) [5] | Group Mean Percentage of Mitogenic Activity (whole blood samples [6]; E-Beam 8.30 kGy) | Group Mean Percentage of Mitogenic Activity (whole blood samples [6]; E-Beam 16.7 kGy) | Group Mean Percentage of Mitogenic Activity (whole blood samples [6]; E-Beam 25.0 kGy) | Group Mean Percentage of Mitogenic Activity (whole blood samples [7]) | Concentration-dependent protection of PHA-P mitogenic activity (FIG. 1) (whole blood samples [6]) | PHA mitogenic response, % of control (FIG. 2) (whole blood samples [9]; [10]) | further results
1 | N[C@@H](CS)C(=O)O (stereo in doubt) [L-Cysteine, 2-amino-3-sulfhydrylpropanoic acid] | preserved | dose-dependent increase | preserved | dose-dependent increase | preserved | dose-dependent increase | maintained stimulatory activities | dose-dependent increase | retained the stimulatory activities | dose-dependent increase | – | – | – | – | – | – | –
2 | N[C@@H](CCC(=O)N[C@@H](CS)C(=O)NCC(=O)O)C(=O)O [Glutathione Reduced, γ-L-Glutamyl-L-cysteinylglycine] | preserved | dose-dependent increase | preserved | dose-dependent increase | preserved | dose-dependent increase | maintained stimulatory activities | dose-dependent increase | retained the stimulatory activities | dose-dependent increase | 53% | 23% | 10% | 116% | – | – | Group Mean Percentage of Mitogenic Activity (whole blood samples [6]; E-Beam 8.30 kGy, listed as reduced glutathione): 53%
3 | N[C@@H](CS)C(=O)O [L-Cysteine, 2-amino-3-sulfhydrylpropanoic acid] | – | – | – | – | – | – | – | – | – | – | 68% | 43% | 26% | 99% | dose dependent protection | 72% | Mitogenic activity of tubes with cysteine compared to tubes without cysteine (FIG. 3) (whole blood samples [8]): retained relatively higher levels of mitogenic activity; Group Mean Percentage of Mitogenic Activity (whole blood samples [6]; E-Beam 8.30 kGy, listed as L-cysteine): 68%; PHA mitogenic activity, % of PHA control formulation (FIG. 1) (whole blood samples [6]; additive 1.0 mM): 5.9%; PHA mitogenic activity, % of PHA control formulation (FIG. 1) (whole blood samples [6]; additive 10 mM): 38%; PHA-P Formulation Potency with Additives (whole blood samples [6]; additive 50 mM): 101%; PHA-P Formulation Potency with Additives (whole blood samples [6]; additive 50 mM, listed as cysteine): comparable to unsupplemented PHA preparations; PHA mitogenic response, % of control (FIG. 2) (whole blood samples [9]; spray-dried tubes, cysteine 5 mM, no radiation sterilization): 94.8%
4 | COc1ccc2[nH]cc(CCNC(C)=O)c2c1 [Melatonin, N-acetyl-5-methoxy tryptamine, reference compound] | – | – | – | – | – | – | – | – | – | – | 53% | 26% | 7.7% | 111% | dose dependent protection | – | Group Mean Percentage of Mitogenic Activity (whole blood samples [6]; E-Beam 8.30 kGy, listed as melatonin): 53%; PHA-P Formulation Potency with Additives (whole blood samples [6]; additive 10 mM): 98.6%; PHA-P Formulation Potency with Additives (whole blood samples [6]; additive 10 mM, listed as melatonin): comparable to unsupplemented PHA preparations
5 | phytohemagglutinin [PHA] | – | – | – | – | – | – | – | – | – | – | – | – | – | – | – | 56% | Mitogenic Potency after Tx, E-Beam (whole blood samples [9]; E-beam 16.6-30 kGy, group mean of 11 donors vs same lot of tubes without treatment (100%)): about 55%
